Values of other authors in PubChem BioAssay AID1259409 (Chemical Carcinogenesis Research Information System (CCRIS), 2018).

Tested on: rodent chemically induced tumor inhibition, incidence and multiplicity
Test: CCRIS tumor inhibitor studies
Conditions: Dose [Inhibitor]: 0

COc1c2ccoc2c(OC)c2oc(=O)ccc12
tumour outcome (control, treated, inhibition, significance) (Carcinogen: 7,12-DIMETHYLBENZ[A]ANTHRACENE, 57-97-6, 30 MG/KG BW TWICE AT 24 HR AND 2 HR PRIOR TO CARCINOGEN DOSE (STUDY DURATION: 18 WK), Route [Inhibitor]: GAVAGE, Species: MOUSE, Strain/Sex: SENCAR/FEMALE, Target Tissue: Type of Lesion: INTEGUMENTARY SYSTEM: SKIN PAPILLOMA, Dose [Carcinogen]: 10 NMOL IN 0.2 ML ACETONE ONCE, Promoter: 12-O-TETRADECANOYLPHORBOL-13-ACETATE, 16561-29-8): 30/30 (100%), 29/30 (97%), 3%, not significant | tumour outcome (control, treated, inhibition, significance) (Carcinogen: 7,12-DIMETHYLBENZ[A]ANTHRACENE, 57-97-6, 70 MG/KG BW TWICE AT 24 HR AND 2 HR PRIOR TO CARCINOGEN DOSE (STUDY DURATION: 18 WK), Route [Inhibitor]: GAVAGE, Species: MOUSE, Strain/Sex: SENCAR/FEMALE, Target Tissue: Type of Lesion: INTEGUMENTARY SYSTEM: SKIN PAPILLOMA, Dose [Carcinogen]: 10 NMOL IN 0.2 ML ACETONE ONCE, Promoter: 12-O-TETRADECANOYLPHORBOL-13-ACETATE, 16561-29-8): 30/30 (100%), 26/30 (86%), 14%, not significant | tumour outcome (control, treated, inhibition, significance) (Carcinogen: 7,12-DIMETHYLBENZ[A]ANTHRACENE, 57-97-6, 150 MG/KG BW TWICE AT 24 HR AND 2 HR PRIOR TO CARCINOGEN DOSE (STUDY DURATION: 18 WK), Route [Inhibitor]: GAVAGE, Species: MOUSE, Strain/Sex: SENCAR/FEMALE, Target Tissue: Type of Lesion: INTEGUMENTARY SYSTEM: SKIN PAPILLOMA, Dose [Carcinogen]: 10 NMOL IN 0.2 ML ACETONE ONCE, Promoter: 12-O-TETRADECANOYLPHORBOL-13-ACETATE, 16561-29-8): 30/30 (100%), 23/30 (78%), 22%, p< 0.006 | tumour outcome (control, treated, inhibition, significance) (Carcinogen: 7,12-DIMETHYLBENZ[A]ANTHRACENE, 57-97-6, 400 NMOL IN 0.2 ML ACETONE ONCE 5 MIN PRIOR TO CARCINOGEN DOSE (STUDY DURATION: 18 WK), Route [Inhibitor]: DERMAL, Species: MOUSE, Strain/Sex: SENCAR/FEMALE, Target Tissue: Type of Lesion: INTEGUMENTARY SYSTEM: SKIN PAPILLOMA, Dose [Carcinogen]: 10 NMOL IN 0.2 ML ACETONE ONCE, Promoter: 12-O-TETRADECANOYLPHORBOL-13-ACETATE, 16561-29-8): 30/30 (100%), 28/30 (93%), 7%, not significant | tumour outcome (control, treated, inhibition, significance) (Carcinogen: 7,12-DIMETHYLBENZ[A]ANTHRACENE, 57-97-6, 800 NMOL IN 0.2 ML ACETONE ONCE 5 MIN PRIOR TO CARCINOGEN DOSE (STUDY DURATION: 18 WK), Route [Inhibitor]: DERMAL, Species: MOUSE, Strain/Sex: SENCAR/FEMALE, Target Tissue: Type of Lesion: INTEGUMENTARY SYSTEM: SKIN PAPILLOMA, Dose [Carcinogen]: 10 NMOL IN 0.2 ML ACETONE ONCE, Promoter: 12-O-TETRADECANOYLPHORBOL-13-ACETATE, 16561-29-8): 30/30 (100%), 27/30 (90%), 10%, not significant | tumour outcome (control, treated, inhibition, significance) (Carcinogen: 7,12-DIMETHYLBENZ[A]ANTHRACENE, 57-97-6, 1600 NMOL IN 0.2 ML ACETONE ONCE 5 MIN PRIOR TO CARCINOGEN DOSE (STUDY DURATION: 18 WK), Route [Inhibitor]: DERMAL, Species: MOUSE, Strain/Sex: SENCAR/FEMALE, Target Tissue: Type of Lesion: INTEGUMENTARY SYSTEM: SKIN PAPILLOMA, Dose [Carcinogen]: 10 NMOL IN 0.2 ML ACETONE ONCE, Promoter: 12-O-TETRADECANOYLPHORBOL-13-ACETATE, 16561-29-8): 30/30 (100%), 23/30 (77%), 23%, p< 0.002 | tumour outcome (control, treated, inhibition, significance) (Carcinogen: 7,12-DIMETHYLBENZ[A]ANTHRACENE, 57-97-6, 3200 NMOL IN 0.2 ML ACETONE ONCE 5 MIN PRIOR TO CARCINOGEN DOSE (STUDY DURATION: 18 WK), Route [Inhibitor]: DERMAL, Species: MOUSE, Strain/Sex: SENCAR/FEMALE, Target Tissue: Type of Lesion: INTEGUMENTARY SYSTEM: SKIN PAPILLOMA, Dose [Carcinogen]: 10 NMOL IN 0.2 ML ACETONE ONCE, Promoter: 12-O-TETRADECANOYLPHORBOL-13-ACETATE, 16561-29-8): 30/30 (100%), 27/30 (89%), 11%, not significant

c1ccc2c(c1)Oc1ccccc1O2
tumour outcome (control, treated, inhibition, significance) (Carcinogen: 7,12-DIMETHYLBENZ[A]ANTHRACENE, 57-97-6, 17 NMOL 2/WK APPLIED 1 HR PRIOR TO EACH PROMOTER DOSE FOR 20 WK (STUDY DURATION: 21 WK), Route [Inhibitor]: DERMAL, Species: MOUSE, Target Tissue: Type of Lesion: SKIN: TUMOR, Dose [Carcinogen]: 390 NMOL ONCE, Promoter: 12-O-TETRADECANOYLPHORBOL-13-ACETATE, 16561-29-8): 100%, 73%, 27%, not calculated

O=c1c2ccccc2[se]n1-c1ccccc1
tumour outcome (control, treated, inhibition, significance) (Carcinogen: 17BETA-ESTRADIOL, 50-28-2, 0.2% IN DIET BEGINNING 5 D POST CARCINOGEN DOSE (STUDY DURATION: 7.5 MO), Route [Inhibitor]: ORAL, Species: HAMSTER, Strain/Sex: SYRIAN/MALE, Target Tissue: Type of Lesion: KIDNEY: TUMOR, Dose [Carcinogen]: 25 MG PELLET REPLACED WITH A SECOND PELLET AFTER 4 MO, Promoter: NONE USED): 13/13 (100%), 8/11 (73%), 27%, p<0.05
